From PubChem BioAssay AID256 (DTP/NCI, 2004)
Inconclusive results and toxic doses are left out. Rule for the calls: active = survival T/C of 150% or more; inactive = T/C below 125% in these data.

System: CD2F1 mice, L1210 leukemia ip, survival T/C
Assay: NCI In Vivo Anticancer Drug Screen. Data for tumor model L1210 Leukemia (intraperitoneal) in CD2F1 (CDF1) mice
Settings: higher = longer survival
In short: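 Transplantable tumor in mice; compound-treated vs vehicle-treated groups. Read-out = treated/control ratio of the measured endpoint.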

[1] = endpoint: mean survival time, dose: 100.0 mg/kg/injection, schedule: Q01DX009 (ip), vehicle: saline with Tween-80
[2] = endpoint: mean survival time, dose: 200.0 mg/kg/injection, schedule: Q01DX009 (ip), vehicle: saline with Tween-80
[3] = endpoint: mean survival time, dose: 400.0 mg/kg/injection, schedule: Q01DX009 (ip), vehicle: saline with Tween-80
[4] = endpoint: mean survival time, dose: 100.0 mg/kg/injection, schedule: Q04DX003 (ip), vehicle: saline with Tween-80
[5] = endpoint: mean survival time, dose: 200.0 mg/kg/injection, schedule: Q04DX003 (ip), vehicle: saline with Tween-80
[6] = endpoint: mean survival time, dose: 400.0 mg/kg/injection, schedule: Q04DX003 (ip), vehicle: saline with Tween-80
[7] = endpoint: mean survival time, dose: 12.5 mg/kg/injection, schedule: Q01DX009 (ip), vehicle: saline with Tween-80
[8] = endpoint: mean survival time, dose: 50.0 mg/kg/injection, schedule: Q01DX009 (ip), vehicle: saline with Tween-80

Measured: T/C

COc1ccc(C(O)C(C)c2ccc([N+](=O)[O-])cc2)cc1 (stereo not drawn)
inactive: endpoint: mean survival time, dose: 100.0 mg/kg/injection, schedule: Q01DX001 (ip), vehicle: saline with Tween-80 106 % of control | [1] 105 % of control | endpoint: mean survival time, dose: 200.0 mg/kg/injection, schedule: Q01DX001 (ip), vehicle: saline with Tween-80 93 % of control | [2] 103 % of control | endpoint: mean survival time, dose: 400.0 mg/kg/injection, schedule: Q01DX001 (ip), vehicle: saline with Tween-80 98 % of control | [3] 94 % of control

Cc1ccc(S(=O)(=O)OC2C3OCC(O3)C(O)C2O)cc1 (stereo not drawn)
inactive: [4] 97 % of control | [5] 94 % of control | [6] 94 % of control

COc1ccc(CNC(C#N)c2ccccc2)cc1OC (stereo not drawn)
inactive: [1] 97 % of control | [2] 104 % of control | [3] 97 % of control

O=C(O)c1cccc2[nH]c(=O)oc(=O)c12
inactive: [4] 103 % of control | [5] 95 % of control | [6] 93 % of control

COc1ccc(/C=C/C(=O)c2ccccc2)cc1Br
inactive: [1] 104 % of control | [4] 97 % of control | [2] 98 % of control | [5] 98 % of control | [3] 101 % of control | [6] 95 % of control

CCOC(=O)/C=C1\NC(=O)N(CCCN2C(=O)N/C(=C\C(=O)OCC)C2=O)C1=O
inactive: endpoint: mean survival time, dose: 3.13 mg/kg/injection, schedule: Q01DX009 (ip), vehicle: saline with Tween-80 95 % of control | endpoint: mean survival time, dose: 6.25 mg/kg/injection, schedule: Q01DX009 (ip), vehicle: saline with Tween-80 98 % of control | [7] 95 % of control | [8] 92 % of control

CC(=O)NC/C(C)=N/Nc1ccc([N+](=O)[O-])cc1[N+](=O)[O-]
inactive: endpoint: mean survival time, dose: 25.0 mg/kg/injection, schedule: Q04DX003 (ip), vehicle: saline with Tween-80 93 % of control | endpoint: mean survival time, dose: 50.0 mg/kg/injection, schedule: Q04DX003 (ip), vehicle: saline with Tween-80 87 % of control | [4] 91 % of control

CC(C)NCC(O)c1ccc(O)c(O)c1.[Pt].c1ccc([PH+](c2ccccc2)c2ccccc2)cc1.c1ccc([PH+](c2ccccc2)c2ccccc2)cc1
inactive: endpoint: median survival time, dose: 10.0 mg/kg/injection, schedule: Q04DX003 (ip), vehicle: saline with Tween-80 108 % of control | endpoint: median survival time, dose: 20.0 mg/kg/injection, schedule: Q04DX003 (ip), vehicle: saline with Tween-80 105 % of control | endpoint: median survival time, dose: 40.0 mg/kg/injection, schedule: Q04DX003 (ip), vehicle: saline with Tween-80 105 % of control | endpoint: median survival time, dose: 50.0 mg/kg/injection, schedule: Q04DX003 (ip), vehicle: saline with Tween-80 101 % of control | endpoint: median survival time, dose: 80.0 mg/kg/injection, schedule: Q04DX003 (ip), vehicle: saline with Tween-80 102 % of control | endpoint: median survival time, dose: 100.0 mg/kg/injection, schedule: Q04DX003 (ip), vehicle: saline with Tween-80 98 % of control

CC(=O)N(CC(C)C)N=O
inactive: endpoint: mean survival time, dose: 100.0 mg/kg/injection, schedule: Q01DX001 (ip), vehicle: saline 95 % of control | endpoint: mean survival time, dose: 100.0 mg/kg/injection, schedule: Q04DX003 (ip), vehicle: saline 102 % of control | endpoint: mean survival time, dose: 200.0 mg/kg/injection, schedule: Q01DX001 (ip), vehicle: saline 97 % of control | endpoint: mean survival time, dose: 200.0 mg/kg/injection, schedule: Q04DX003 (ip), vehicle: saline 97 % of control | endpoint: mean survival time, dose: 400.0 mg/kg/injection, schedule: Q01DX001 (ip), vehicle: saline 89 % of control | endpoint: mean survival time, dose: 400.0 mg/kg/injection, schedule: Q04DX003 (ip), vehicle: saline 94 % of control

CC(C)(C)Sc1cccnc1 (tested in a mixture with another compound)
inactive: [1] 92 % of control | [2] 93 % of control

Cc1cc(NC(=O)NCc2ccc(N3C(N)=NC(N)=NC3(C)C)cc2)ccc1S(=O)(=O)F
inactive: [7] 101 % of control | endpoint: mean survival time, dose: 25.0 mg/kg/injection, schedule: Q01DX009 (ip), vehicle: saline with Tween-80 106 % of control | [8] 104 % of control | [1] 123 % of control

O=C1c2ccccc2C(=O)c2c(O)c3c(c(O)c21)CCCC3O (stereo not drawn)
inactive: endpoint: mean survival time, dose: 0.05 mg/kg/injection, schedule: Q01DX001 (ip), vehicle: saline 101 % of control | endpoint: mean survival time, dose: 0.1 mg/kg/injection, schedule: Q01DX001 (ip), vehicle: saline 98 % of control | endpoint: mean survival time, dose: 0.2 mg/kg/injection, schedule: Q01DX001 (ip), vehicle: saline 101 % of control | endpoint: mean survival time, dose: 0.4 mg/kg/injection, schedule: Q01DX001 (ip), vehicle: saline 101 % of control | endpoint: mean survival time, dose: 0.8 mg/kg/injection, schedule: Q01DX001 (ip), vehicle: saline 101 % of control

Cc1n[nH]c2ccc([N+](=O)[O-])cc2c1=O
inactive: [1] 89 % of control

CC1(c2ccccc2)NC(=O)NC1=O (stereo not drawn)
inactive: endpoint: mean survival time, dose: 100.0 mg/kg/injection, schedule: Q01DX009 (ip), vehicle: other 98 % of control | [4] 94 % of control | endpoint: mean survival time, dose: 200.0 mg/kg/injection, schedule: Q01DX009 (ip), vehicle: other 97 % of control | [5] 97 % of control | [6] 91 % of control

N#CCCN1C(=O)CCC1=O
inactive: [1] 97 % of control | [4] 95 % of control | [2] 95 % of control | [5] 97 % of control | [3] 92 % of control | [6] 95 % of control
